From ChEMBL document CHEMBL4311992, “Discovery of 3-(((9H-purin-6-yl)amino)methyl)-4,6-dimethylpyridin-2(1H)-one derivatives as novel tubulin polymerization inhibitors for treatment of cancer” (Eur J Med Chem, 2019) come the findings set out here.

The target in test [1] is Tyrosine-protein kinase JAK3 (Homo sapiens) (UniProt P52333). Put plainly: Inhibition of recombinant human JAK3 (781 to end residues) assessed as residual activity at 10 uM using GGEEEEYFELVKKKK as substrate measured after 40 mins in presence of [gamma33P]ATP by scintillation counting method.
Test [2] concerns Ribosomal protein S6 kinase beta-1 (Homo sapiens), P23443 [T412E]. As to the kind of experiment: Inhibition of recombinant human p70S6K T412E mutant (1 to 421 residues) assessed as residual activity at 10 uM using KKRNRTLTV as substrate measured after 40 mins in presence of [gamma33P]ATP by scintillation counting method.
For test [3], the target named is Serine/threonine-protein kinase WNK1 (Homo sapiens) (UniProt Q9H4A3). As to the kind of experiment: Inhibition of human WNK1 (1 to 491 residues) using myelin basic protein as substrate measured after 120 mins in presence of [gamma33P]ATP by scintillation counting method. On the set-up: scale not given: the % may be the effect or the level left.
Test [4] has as its target Serine/threonine-protein kinase PAK 6 (Homo sapiens) (UniProt Q9NQU5). Put plainly: Inhibition of recombinant human PAK6 (382 to end residues) assessed as residual activity at 10 uM using RRRLSFAEPG as substrate measured after 40 mins in presence of [gamma33P]ATP by scintillation counting method.
For test [5], the target named is Serine/threonine-protein kinase Nek3 (Homo sapiens) (UniProt P51956). As to the kind of experiment: Inhibition of recombinant full-length human NEK3 assessed as residual activity at 10 uM using myelin basic protein as substrate measured after 40 mins in presence of [gamma33P]ATP by scintillation counting method.
Chain of Serine/threonine-protein kinase Nek3 (Homo sapiens) (P51956 whole entry): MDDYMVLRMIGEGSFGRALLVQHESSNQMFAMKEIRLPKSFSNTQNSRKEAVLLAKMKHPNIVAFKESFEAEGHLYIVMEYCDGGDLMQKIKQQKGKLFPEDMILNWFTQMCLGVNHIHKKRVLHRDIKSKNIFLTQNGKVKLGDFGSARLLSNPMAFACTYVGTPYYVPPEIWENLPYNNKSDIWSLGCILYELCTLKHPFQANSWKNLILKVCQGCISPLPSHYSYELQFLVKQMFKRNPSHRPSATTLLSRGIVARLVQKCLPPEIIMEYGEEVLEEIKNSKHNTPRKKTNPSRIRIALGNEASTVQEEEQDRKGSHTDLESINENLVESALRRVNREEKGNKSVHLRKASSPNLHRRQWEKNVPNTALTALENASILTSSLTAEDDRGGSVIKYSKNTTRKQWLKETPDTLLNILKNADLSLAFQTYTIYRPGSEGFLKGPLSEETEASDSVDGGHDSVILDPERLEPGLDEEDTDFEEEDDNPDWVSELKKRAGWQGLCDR
Test [6] addresses CDK17/Cyclin-Y (Homo sapiens) (UniProt Q00537+Q8ND76). Put plainly: Inhibition of human CDK17/cyclinY assessed as residual activity at 10 uM using PKSPKARKKL as substrate measured after 120 mins in presence of [gamma33P]ATP by scintillation counting method. It counts as protein-complex assay.
Test [7] deals with Serine-protein kinase ATM (Homo sapiens) (UniProt Q13315). As to the kind of experiment: Inhibition of recombinant full-length human ATM assessed as residual activity at 10 uM using GST-cMyc-p53 as substrate measured after 40 mins by ELISA. (ELISA stands for enzyme-linked immunosorbent assay.)
Test [8] addresses Serine/threonine-protein kinase 10 (Homo sapiens) (UniProt O94804). Put plainly: Inhibition of recombinant human LOK (1 to 348 residues) assessed as residual activity at 10 uM using RLGRDKYKTLRQIRQ as substrate measured after 40 mins in presence of [gamma33P]ATP by scintillation counting method.
The species named for a further test is Mus musculus. As to the kind of experiment: Inhibition of recombinant full-length mouse PI3K p110alpha/p85alpha E542K mutant assessed as residual activity at 10 uM using phosphatidylinositol-4, 5-bisphosphate as substrate measured after 40 mins by HTRF assay.
Test [9] relates to Angiopoietin-1 receptor (Homo sapiens), Q02763 [Q939H,Q940H]. Put plainly: Inhibition of human Tie2 Q939H/Q940H mutant (771 to end residues) using poly(Glu, Tyr) 4:1 as substrate measured after 40 mins in presence of [gamma33P]ATP by scintillation counting method. Also noted: scale not given: the % may be the effect or the level left.
The subject of test [10] is Mast/stem cell growth factor receptor Kit (Homo sapiens), P10721 [D816H]. As to the kind of experiment: Inhibition of recombinant human c-Kit D816H mutant (544 to end residues) assessed as residual activity at 10 uM using GGMEDIYFEFMGGKKK as substrate measured after 40 mins in presence of [gamma33P]ATP by scintillation counting method.
For test [11], the target named is Non-receptor tyrosine-protein kinase TYK2 (Homo sapiens) (UniProt P29597). As to the kind of experiment: Inhibition of human TYK2 (875 to end residues) using GGMEDIYFEFMGGKKK as substrate measured after 40 mins in presence of [gamma33P]ATP by scintillation counting method. Also noted: scale not given: the % may be the effect or the level left.
Test [12] deals with Serine/threonine-protein kinase tousled-like 1 (Homo sapiens) (UniProt Q9UKI8). Put plainly: Inhibition of recombinant full-length human TLK1 assessed as residual activity at 10 uM using casein as substrate measured after 40 mins in presence of [gamma33P]ATP by scintillation counting method.
Chain of Serine/threonine-protein kinase tousled-like 1 (Homo sapiens) (Q9UKI8 whole entry, the tested form may be a part, canonical isoform): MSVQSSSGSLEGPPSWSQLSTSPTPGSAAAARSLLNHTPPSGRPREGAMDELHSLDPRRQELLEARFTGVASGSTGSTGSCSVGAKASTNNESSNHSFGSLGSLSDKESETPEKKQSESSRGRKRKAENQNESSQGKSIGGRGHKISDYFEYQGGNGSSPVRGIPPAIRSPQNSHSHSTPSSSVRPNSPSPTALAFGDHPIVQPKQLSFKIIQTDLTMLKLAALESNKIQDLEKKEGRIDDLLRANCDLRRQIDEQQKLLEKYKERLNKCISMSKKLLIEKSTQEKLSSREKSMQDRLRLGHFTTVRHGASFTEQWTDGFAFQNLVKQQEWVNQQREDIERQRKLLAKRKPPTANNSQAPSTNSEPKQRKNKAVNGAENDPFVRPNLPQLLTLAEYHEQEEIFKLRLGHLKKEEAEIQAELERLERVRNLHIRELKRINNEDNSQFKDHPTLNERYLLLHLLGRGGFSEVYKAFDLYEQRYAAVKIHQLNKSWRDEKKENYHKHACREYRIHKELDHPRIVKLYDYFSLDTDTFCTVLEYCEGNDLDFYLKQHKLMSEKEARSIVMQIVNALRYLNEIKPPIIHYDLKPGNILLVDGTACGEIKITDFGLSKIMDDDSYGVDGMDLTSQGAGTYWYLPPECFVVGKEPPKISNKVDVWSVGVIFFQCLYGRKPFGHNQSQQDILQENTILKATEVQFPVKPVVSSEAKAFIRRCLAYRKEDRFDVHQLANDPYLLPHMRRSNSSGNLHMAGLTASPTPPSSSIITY
The target in test [13] is Casein kinase I isoform delta (Homo sapiens) (UniProt P48730). Put plainly: Inhibition of recombinant human CK1delta (1 to 294 residues) assessed as residual activity at 10 uM using KRRRALS(p)VASLPGL as substrate measured after 40 mins in presence of [gamma33P]ATP by scintillation counting method.
Chain of Casein kinase I isoform delta (Homo sapiens) (P48730 whole entry, looked up, the tested form may be a part, canonical isoform): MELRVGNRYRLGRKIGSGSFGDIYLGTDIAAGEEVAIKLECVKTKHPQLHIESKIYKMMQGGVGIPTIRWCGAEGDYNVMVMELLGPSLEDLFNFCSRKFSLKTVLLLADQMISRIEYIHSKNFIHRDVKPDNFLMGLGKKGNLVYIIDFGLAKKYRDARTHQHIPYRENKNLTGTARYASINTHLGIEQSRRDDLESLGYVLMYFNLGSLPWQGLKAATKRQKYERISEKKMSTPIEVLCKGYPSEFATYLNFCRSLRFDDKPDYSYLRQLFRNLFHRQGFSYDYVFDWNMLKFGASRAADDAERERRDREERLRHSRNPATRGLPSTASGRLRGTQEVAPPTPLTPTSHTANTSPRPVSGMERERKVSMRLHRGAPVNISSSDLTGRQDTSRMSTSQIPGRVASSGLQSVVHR
Test [14] addresses Death-associated protein kinase 3 (Homo sapiens) (UniProt O43293). As to the kind of experiment: Inhibition of human ZIPK (1 to 290 residues) using KKLNRTLSFAEPG as substrate measured after 40 mins in presence of [gamma33P]ATP by scintillation counting method. On the set-up: scale not given: the % may be the effect or the level left.
The test system of test [15] is Tyrosine-protein kinase ABL1 (Homo sapiens), P00519 [T315I]. Put plainly: Inhibition of recombinant human ABL T315I mutant (27 to end residues) assessed as residual activity at 10 uM using EAIYAAPFAKKK as substrate measured after 40 mins in presence of [gamma33P]ATP by scintillation counting method.
In test [16] the target is Phosphatidylinositol 4-phosphate 5-kinase type-1 gamma (Homo sapiens) (UniProt O60331). As to the kind of experiment: Inhibition of recombinant full-length human PIP5K1gamma assessed as residual activity at 10 uM using phosphatidylinositol 4-phosphate as substrate measured after 40 mins by HTRF assay. On the technique in general: Time-resolved FRET reads energy transfer from a long-lived donor to a nearby acceptor.

Test [17] concerns the target NUAK family SNF1-like kinase 2 (Homo sapiens) (UniProt Q9H093). As to the kind of experiment: Inhibition of recombinant full-length human NUAK2 assessed as residual activity at 10 uM using KKKVSRSGLYRSPSMPENLNRPR as substrate measured after 40 mins in presence of [gamma33P]ATP by scintillation counting method.
Test [18] concerns the target Serine/threonine-protein kinase VRK1 (Homo sapiens) (UniProt Q99986). Put plainly: Inhibition of human VRK1 assessed as residual activity at 10 uM by radiometric method.
For test [19], the target named is Fibroblast growth factor receptor 3 (Homo sapiens) (UniProt P22607). Put plainly: Inhibition of recombinant human FGFR3 (447 to 761 residues) assessed as residual activity at 10 uM using poly(Glu, Tyr) 4:1 as substrate measured after 40 mins in presence of [gamma33P]ATP by scintillation counting method.
Test [20] deals with Cyclin-dependent kinase 1/cyclin B1 (Homo sapiens) (UniProt P06493+P14635). Put plainly: Inhibition of recombinant full-length human CDK1/cyclinB assessed as residual activity at 10 uM using histone H1 as substrate measured after 40 mins in presence of [gamma33P]ATP by scintillation counting method. It counts as protein-complex assay.
Chain of Cyclin-dependent kinase 1/cyclin B1 (Homo sapiens) (P06493 whole entry, looked up): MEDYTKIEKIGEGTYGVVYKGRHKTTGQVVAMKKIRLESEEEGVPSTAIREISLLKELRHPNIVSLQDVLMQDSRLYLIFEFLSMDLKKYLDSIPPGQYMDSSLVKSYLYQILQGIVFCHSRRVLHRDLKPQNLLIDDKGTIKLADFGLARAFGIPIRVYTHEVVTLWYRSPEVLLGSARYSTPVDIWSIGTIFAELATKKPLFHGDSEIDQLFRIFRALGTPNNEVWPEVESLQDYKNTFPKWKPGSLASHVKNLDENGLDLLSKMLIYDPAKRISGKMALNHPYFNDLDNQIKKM
Chain of Cyclin-dependent kinase 1/cyclin B1 (Homo sapiens) (P14635 whole entry, looked up): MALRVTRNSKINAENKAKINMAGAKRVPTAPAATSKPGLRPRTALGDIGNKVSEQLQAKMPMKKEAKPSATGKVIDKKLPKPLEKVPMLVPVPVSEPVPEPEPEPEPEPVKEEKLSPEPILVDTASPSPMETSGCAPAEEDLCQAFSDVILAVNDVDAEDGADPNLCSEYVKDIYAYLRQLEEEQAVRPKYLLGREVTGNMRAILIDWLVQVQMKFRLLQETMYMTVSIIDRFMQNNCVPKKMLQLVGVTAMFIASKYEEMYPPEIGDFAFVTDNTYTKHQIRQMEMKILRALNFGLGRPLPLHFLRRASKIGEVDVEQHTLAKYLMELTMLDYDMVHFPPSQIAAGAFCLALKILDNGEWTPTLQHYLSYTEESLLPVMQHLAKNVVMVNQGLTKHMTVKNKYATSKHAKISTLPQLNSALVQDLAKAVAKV
Test [21] addresses Mitogen-activated protein kinase kinase kinase 11 (Homo sapiens) (UniProt Q16584). As to the kind of experiment: Inhibition of human MLK3 assessed as residual activity at 10 uM by radiometric method.
In test [22] the target is Serine/threonine-protein kinase ULK3 (Homo sapiens) (UniProt Q6PHR2). Put plainly: Inhibition of recombinant full-length human ULK3 assessed as residual activity at 10 uM using casein as substrate measured after 40 mins in presence of [gamma33P]ATP by scintillation counting method.
Chain of Serine/threonine-protein kinase ULK3 (Homo sapiens) (Q6PHR2 whole entry): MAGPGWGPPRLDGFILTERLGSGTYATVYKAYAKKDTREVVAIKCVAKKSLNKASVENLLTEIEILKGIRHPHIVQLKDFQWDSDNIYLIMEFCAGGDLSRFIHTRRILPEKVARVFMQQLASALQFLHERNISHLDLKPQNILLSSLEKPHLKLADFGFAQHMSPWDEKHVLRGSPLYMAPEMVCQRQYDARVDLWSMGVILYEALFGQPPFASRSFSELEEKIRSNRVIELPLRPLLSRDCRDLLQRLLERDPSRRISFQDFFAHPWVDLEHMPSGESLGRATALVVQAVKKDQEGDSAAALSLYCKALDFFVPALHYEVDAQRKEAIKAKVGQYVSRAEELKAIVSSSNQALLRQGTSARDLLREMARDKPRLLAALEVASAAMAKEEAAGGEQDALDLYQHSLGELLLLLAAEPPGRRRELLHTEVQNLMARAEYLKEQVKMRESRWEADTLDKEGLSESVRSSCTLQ
The target of test [23] is Protein kinase C epsilon type (Homo sapiens) (UniProt Q02156). Put plainly: Inhibition of recombinant human PKCepsilon (2 to end residues) assessed as residual activity at 10 uM using ERMRPRKRQGSVRRRV as substrate measured after 40 mins in presence of [gamma33P]ATP by scintillation counting method.

Chain of Mast/stem cell growth factor receptor Kit (Homo sapiens), P10721 [D816H] (P10721 whole entry D816H): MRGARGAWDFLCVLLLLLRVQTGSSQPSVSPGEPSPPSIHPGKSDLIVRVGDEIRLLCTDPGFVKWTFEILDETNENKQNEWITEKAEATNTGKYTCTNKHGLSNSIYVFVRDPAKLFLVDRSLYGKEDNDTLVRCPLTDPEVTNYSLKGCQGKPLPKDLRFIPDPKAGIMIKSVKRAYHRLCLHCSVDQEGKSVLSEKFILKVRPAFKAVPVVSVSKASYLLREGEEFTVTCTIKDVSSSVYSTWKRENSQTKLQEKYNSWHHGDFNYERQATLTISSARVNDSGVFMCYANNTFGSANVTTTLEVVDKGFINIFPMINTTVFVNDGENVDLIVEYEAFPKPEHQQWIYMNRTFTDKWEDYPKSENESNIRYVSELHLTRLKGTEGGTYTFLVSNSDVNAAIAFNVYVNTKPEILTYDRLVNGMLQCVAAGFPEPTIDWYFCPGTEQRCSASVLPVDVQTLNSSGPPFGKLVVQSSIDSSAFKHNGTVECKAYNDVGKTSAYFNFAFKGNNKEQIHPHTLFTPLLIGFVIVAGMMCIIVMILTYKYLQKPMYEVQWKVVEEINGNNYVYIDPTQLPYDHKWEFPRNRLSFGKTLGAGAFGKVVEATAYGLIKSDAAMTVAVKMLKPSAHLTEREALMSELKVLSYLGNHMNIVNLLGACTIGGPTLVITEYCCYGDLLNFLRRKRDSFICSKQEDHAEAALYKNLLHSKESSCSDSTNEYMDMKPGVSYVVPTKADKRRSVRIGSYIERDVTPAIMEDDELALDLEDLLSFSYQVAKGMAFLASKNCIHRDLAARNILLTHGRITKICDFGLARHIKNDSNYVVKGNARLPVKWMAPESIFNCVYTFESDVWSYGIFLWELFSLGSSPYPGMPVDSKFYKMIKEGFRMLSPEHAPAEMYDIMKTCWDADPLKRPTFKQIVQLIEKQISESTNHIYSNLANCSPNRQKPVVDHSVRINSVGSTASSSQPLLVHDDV
Chain of Mitogen-activated protein kinase kinase kinase 11 (Homo sapiens) (Q16584 whole entry, looked up): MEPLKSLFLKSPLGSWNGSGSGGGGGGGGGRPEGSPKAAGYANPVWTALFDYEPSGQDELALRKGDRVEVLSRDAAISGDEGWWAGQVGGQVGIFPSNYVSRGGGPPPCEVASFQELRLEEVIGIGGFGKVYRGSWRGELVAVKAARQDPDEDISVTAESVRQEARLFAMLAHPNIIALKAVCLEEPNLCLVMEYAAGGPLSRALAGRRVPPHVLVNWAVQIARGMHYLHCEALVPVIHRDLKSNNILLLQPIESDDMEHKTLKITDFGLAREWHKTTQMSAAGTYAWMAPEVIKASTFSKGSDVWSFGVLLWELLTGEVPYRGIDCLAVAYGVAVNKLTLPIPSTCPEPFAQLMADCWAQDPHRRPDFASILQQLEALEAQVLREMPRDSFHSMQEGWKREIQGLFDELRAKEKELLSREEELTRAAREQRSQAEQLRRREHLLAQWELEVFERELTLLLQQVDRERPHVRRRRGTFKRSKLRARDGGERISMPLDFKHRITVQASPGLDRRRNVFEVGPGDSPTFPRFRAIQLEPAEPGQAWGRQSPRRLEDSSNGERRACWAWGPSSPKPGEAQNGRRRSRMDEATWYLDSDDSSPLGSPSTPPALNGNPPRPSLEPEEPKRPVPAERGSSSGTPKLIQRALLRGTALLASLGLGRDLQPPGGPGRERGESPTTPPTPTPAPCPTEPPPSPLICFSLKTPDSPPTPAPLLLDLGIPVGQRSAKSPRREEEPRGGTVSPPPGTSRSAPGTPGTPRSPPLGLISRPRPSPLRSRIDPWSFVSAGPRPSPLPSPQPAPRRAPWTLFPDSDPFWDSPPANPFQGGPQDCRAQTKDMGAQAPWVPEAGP

Turning to `Cc1cc(C)c(CNc2nc(Cl)nc3c2ncn3C2CCCC2)c(=O)[nH]1`, the Activity in test [1] was found to be 90%; in [2] it was 105%; in [3] it was 104%; in test [4] it was 101%; in test [5], 102%; in test [6], 102%. Besides, the Activity in [7] amounted to 95.5%; in test [8] it was 91.5%; in the test filed under Mus musculus, 95%; in test [9] it was 75.5%; in [10] it was 101%; in [11], 95.5%. Moreover, the Activity in test [12] was found to be 97%; in [13], 103%; in test [14], 110%; in [15], 108%; in test [16], 99.5%; in test [17] it was 114%. The Activity stood at 92.5% in test [18]; 94.5% in test [19]; 102% in [20]; 104% in [21]; 102% in test [22]; 95% in test [23].
